Reference: ChEMBL document CHEMBL1140362, “Novel iron-specific fluorescent probes” (Bioorg Med Chem Lett, 2005)
Where “and” joins values, the source holds several entries; their conditions need not be identical. Equal entries are not always repeated.

Key:
[1] = species: Homo sapiens; assay: The fluorescent suspension followed by time was estimated in the presence of Diehtylenetriamine-penta acetic acid; assay type: functional
[2] = Permeability parameter across human erythrocyte ghost membrane was determined by using fluorescence intensity of 10 uM in presence of Diethylenetriamine-penta acetic acid (DTPA); assay type: ADME; settings: erythrocytes
[3] = The fluorescent suspension followed by time was estimated in the absence of Diehtylenetriamine-penta acetic acid; assay type: functional
[4] = Permeability parameter across human erythrocyte ghost membrane was determined by using fluorescence intensity of 10 uM in absence of Diethylenetriamine-penta acetic acid (DTPA); assay type: ADME; settings: erythrocytes

Row | Compound | TIME [1] [h] | Fluorescence [2] [a.u] | TIME [3] | Fluorescence [4]
1 | Cc1cc2[nH]c(=O)c3cc(=O)c(O)cn3c2cc1C | 0.00667 | 252 |  | 
2 | O=C1NCCn2cc(O)c(=O)cc21 | 0.0353 | 117 | 0.03 h and 0.0786 h | 127 a.u and 65 a.u
